Where two headings read alike, the source gives them in different places.
Columns and labels:
[1] = test system: influenza virus endonuclease; settings: read-out: IC50 in enzymatic assays; cited from earlier work
[2] = biological target: influenza virus vRNPs reconstituted in HEK293T cells (Influenza A virus, UniProt P03433); experiment: vRNP reconstitution assay in HEK293T cells; type: cell-based; settings: for selectivity index (ratio of CC50 to EC50): vRNP assay, HEK293T
[3] = in vitro; settings: dog
[4] = in vitro; settings: human, vRNP reconstitution assay Cytotoxicity CC50
[5] = test system: influenza A virus (strain A/PR/8/34); experiment: microbe, parasite or virus in culture; type: cell-based; settings: for EC90 / EC99: Influenza A virus, 24 h; for EC90: read-out: Virus yield assay Antiviral activity EC90; for EC99: read-out: Virus yield assay Antiviral activity EC99
[6] = MTS cell viability assay in uninfected MDCK cells; settings: dog
[7] = MTS cell viability assay in untransfected HEK293T cells; settings: human, vRNP reconstitution assay Cytotoxicity CC50, untransfected HEK293T cells
[8] = test system: untransfected HEK293T cells; settings: human, 24 h, 200 μM
[9] = read-out: vRNP reconstitution assay Activity EC50
[10] = PR/8, 1-log10 reduction in virus titer, qPCR, MDCK cells
[11] = PR/8, 2-log10 reduction in virus titer, qPCR, MDCK cells

Row | Structure (SMILES) | EC50 [2, 9] [µM] | CC50 at 24 h [3] [µM] | CC50 at 24 h [4] [µM] | EC90 [5, 10] [µM] | EC99 [5, 11] [µM] | SI (selectivity index, ratio between CC50 and EC90) ([5]; MDCK cells) | also measured
1 | O=C(O[C@@H]1Cc2c(O)cc(O)cc2O[C@@H]1c1cc(O)c(O)c(O)c1)c1cc(O)c(O)c(O)c1 [EGCG, epigallocatechin-3-gallate] |  |  |  |  |  |  | IC50 [1]: 1.9 µM
2 | NNC(=O)c1cc(O)c(O)c(O)c1 [Compound 28, 3,4,5-trihydroxybenzohydrazide] | 7.2 | > 200 | > 200 | 85 | 158 | >2.4 | difference between EC50 in the vRNP assay and EC90 in the virus yield assay [2]: ≥ 8 fold
3 | NC(=O)c1ncn([C@@H]2O[C@H](CO)[C@@H](O)[C@H]2O)n1 [Ribavirin, reference compound] |  |  |  |  |  |  | CC50 at 24 h [6]: > 200 µM; EC50 [2]: 9.4 µM; CC50 at 24 h [7]: > 200 µM; EC90 ([5]; PR/8, MDCK): 8.5 µM; EC99 ([5]; PR/8, MDCK): 13 µM
4 | O=C(N/N=C/c1ccccc1)c1cc(O)c(O)c(O)c1 [Compound 13] | 6.3 | > 200 | > 200 | 34 | 71 | >5.9 | 
5 | O=C(N/N=C/c1cc(O)c(O)c(O)c1)c1cc(O)c(O)c(O)c1 [Compound 23] | 3.1 | > 200 | > 200 | 3.5 | 11 | >57 | 
6 | O=C(N/N=C/c1cccc(O)c1O)c1cc(O)c(O)c(O)c1 [Compound 18] | 3.3 | > 200 | > 200 | 2.2 | 6.2 | >91 | cytotoxicity in the vRNP assay [8]: not cytotoxic at 200 μM
7 | NC(=O)N/N=C/c1cccc(O)c1O [Compound 1, N’-(2,3-dihydroxybenzylidene)-semicarbazide] | 107 |  | > 200 |  |  |  | 
8 | O=C(N/N=C/c1cc(O)c(O)cc1O)c1ccccc1O [Compound 9] | 5.5 | > 200 | > 200 | 5.3 | 16 | >38 | 
9 | O=C(N/N=C/c1ccccc1O)c1cc(O)c(O)c(O)c1 [Compound 14] | 2.3 | > 200 | > 200 | 37 | 63 | >5.4 | difference between EC50 in the vRNP assay and EC90 in the virus yield assay [2]: ≥ 8 fold
10 | O=C(N/N=C/c1cc(O)c(O)cc1O)c1cc(O)c(O)c(O)c1 [Compound 21] | 2.5 | > 200 | > 200 | 3.6 | 8.3 | >56 | 
11 | O=C(N/N=C/c1ccc(O)cc1O)c1cc(O)c(O)c(O)c1 [Compound 17] | 7.1 | > 200 | > 200 | 8.1 | 21 | >25 | 
12 | COc1cccc(/C=N/NC(=O)c2ccccc2O)c1O [Compound 8] | 1.9 | > 200 |  | > 12.5 | > 12.5 |  | selectivity index (ratio of CC50 to EC50) [2]: below 8
13 | COc1cccc(/C=N/NC(=O)c2ccccc2)c1O [Compound 6] | 15 | > 200 |  | > 50 | > 50 |  | selectivity index (ratio of CC50 to EC50) [2]: below 8
14 | O=C(N/N=C/c1cccc(O)c1O)c1ccccc1 [Compound 5] | 2.6 | ≥ 146 |  | > 25 | > 25 |  | selectivity index (ratio of CC50 to EC50) [2]: below 8
15 | O=C(N/N=C/c1c(O)cc(O)cc1O)c1cc(O)c(O)c(O)c1 [Compound 22] | 0.42 | > 200 | > 200 | 3.4 | 7.4 | >59 | difference between EC50 in the vRNP assay and EC90 in the virus yield assay [2]: ≥ 8 fold
16 | O=C(N/N=C/c1c(O)cc(O)cc1O)c1ccccc1O [Compound 10] | 0.4 | 111 | 132 | 8.5 | 14 |  | difference between EC50 in the vRNP assay and EC90 in the virus yield assay [2]: ≥ 8 fold

Row | Structure (SMILES) | EC50 [2, 9] [µM] | CC50 at 24 h [3] [µM] | CC50 at 24 h [4] [µM] | EC90 [5, 10] [µM] | EC99 [5, 11] [µM] | SI (selectivity index, ratio between CC50 and EC90) ([5]; MDCK cells) | also measured
17 | O=C(N/N=C/c1ccc[nH]1)c1cc(O)c(O)c(O)c1 [Compound 25] | 4.1 | > 200 | > 200 | 70 | 132 | >2.9 | difference between EC50 in the vRNP assay and EC90 in the virus yield assay [2]: ≥ 8 fold
18 | O=C(N/N=C/c1ccc(O)c(O)c1O)c1cc(O)c(O)c(O)c1 [Compound 20] | 2.2 | > 200 | > 200 | 11 | 35 | >18 | 
19 | O=C(O)c1ccc(-c2cccc(/C=N/NC(=O)c3cc(O)c(O)c(O)c3)c2)cc1 [Compound 26] | 5.5 | > 200 | > 200 | 13 | 36 | >15 | 
20 | COc1ccc(O)c(/C=N/NC(=O)c2cc(O)c(O)c(O)c2)c1 [Compound 16] | 5.2 | > 200 | > 200 | 28 | 67 | >7.1 | 
21 | CC(C)/C=C1\N=C(CC(C)C)C(=O)N(O)C1=O [Flutimide] |  |  |  |  |  |  | IC50 [1]: 5.5 µM
22 | O=C(N/N=C/c1cccc(O)c1O)c1ccccc1O [Compound 7] | 3.2 | > 200 |  | 100 | 172 | >2.0 | difference between EC50 in the vRNP assay and EC90 in the virus yield assay [2]: ≥ 8 fold; selectivity index (ratio of CC50 to EC50) [2]: below 8
23 | COc1cccc(/C=N/NC(=O)c2cc(O)c(O)c(O)c2)c1O [Compound 19] | 5.7 | > 200 | > 200 | 26 | 53 | >7.7 | cytotoxicity in the vRNP assay [8]: not cytotoxic at 200 μM
24 | CCCCCCCC(=O)N/N=C/c1cccc(O)c1O [Compound 3] | 5.9 | > 200 | < 50 |  |  |  | selectivity index (ratio of CC50 to EC50) [2]: below 8
25 | NC(=O)N/N=C/c1cc(O)c(O)c(O)c1 [Compound 27] | 21 |  | > 200 |  |  |  | 
26 | COc1cccc(/C=N/NC(N)=O)c1O [Compound 2] | > 100 |  | > 200 |  |  |  | 
27 | CCCCCCCC(=O)N/N=C/c1cccc(OC)c1O [Compound 4] | 6.3 | > 200 | < 50 |  |  |  | selectivity index (ratio of CC50 to EC50) [2]: below 8
28 | O=C(N/N=C/c1ccccn1)c1cc(O)c(O)c(O)c1 [Compound 24] | 25 | > 200 | > 200 | 26 | 58 | >7.7 | 
29 | O=C(N/N=C/c1cc(O)ccc1O)c1cc(O)c(O)c(O)c1 [Compound 15] | 14 | ≥ 172 | > 200 | 7.5 | 18 | ≥23 | 
30 | O=c1[nH]c(-c2ccc(-c3nnn[nH]3)cc2)ncc1O [2-(4-(1H-tetrazol-5-yl)phenyl)-5-hydroxypyrimidin-4(3H)-one] |  |  |  |  |  |  | IC50 [1]: 0.15 µM
31 | O=C(N/N=C/c1cc(O)c(O)c(O)c1)c1ccccc1O [Compound 11] | 5.6 | > 200 | > 200 | 12 | 30 | >17 | 
32 | COc1cc(C(=O)N/N=C/c2cc(O)ccc2O)cc(OC)c1OC [Compound 12] | 20 | > 200 | 39 | > 12.5 | > 12.5 |  | 

From PMC4980666, “N-acylhydrazone inhibitors of influenza virus PA endonuclease with versatile metal binding modes” (Scientific Reports, 2016)
